Assay results published in patent US20180110777A1, “METHOD FOR REGULATION OF TELOMERE LENGTH” (The Johns Hopkins University, priority 2015, published 2018).
Entries after “also recorded” stand apart in the source; their conditions may differ.

Legend:
[1] = tested on: SL13 cells; assay: Bulk telomere length, Southern blot, SL13 long-term culture; assay type: cell-based, mouse
Text: ATM has been proposed to play different roles in signaling telomere dysfunction in human and mouse cells. Since it is not yet clear whether the damage signaling is mechanistically linked to telomere elongation, and given the discrepant reports of the role of ATM in human telomere length, the role of ATM in human cells was revisited.
As an independent test of Olaparib on telomere length, telomeres were examined by Southern blot in cultured SL13 cells grown in the presence of Olaparib for an extended time. […] Taken together, the experiments described here indicate that inhibition of ATM blocks telomere elongation while activation of ATM stimulates telomere elongation.
Telomere lengths of SL13 cells treated with 10 μM KU55933 were measured at different population doublings (PD) using genomic Southern blot analysis. […] Boxed numbers indicate the pixel positions corresponding to the blot.
To examine the in vivo chr4 cleavage, genomic DNA of SL13 treated with doxycycline for various time points was extracted using the Puregene™ Core Kit A (Qiagen) and digested with NcoI restriction enzyme (NEB). […] Labeled probe was counted and 10^6 counts/ml (probe) or 10^4 counts/ml (2-log ladder) was denatured at 100° C. for 5 minutes and added to the pre-hybridization solution and hybridized overnight at 42° C. […]

[2] = tested on: ATM; assay: Western blot of ATM signaling (phospho-Kap1, phospho-ATM); assay type: cell-based, mouse
Text: To probe the role of ATM, the ADDIT assay was used in cells treated with the ATM specific inhibitor KU55933 (as described in Hickson et al., 2004, Cancer Research 64, 9152-9159) or with siRNA to ATM. To confirm the inhibition of ATM, the phosphorylation level was examined of the ATM substrate Kap1 and, as a control, an ATR kinase substrate Chk1 by western blot. Cultured cells were pretreated with KU55933, siA™ or DMSO control and then exposed to camptothecin (CPT), a DNA damaging agent.
To further probe the role of ATM in telomere length, ATM was activated in cultured cells. […] PARP is an essential enzyme involved in recognition and repair of DNA breaks. […] Similar to wild-type control, the most common class of telomere addition was Class 3 that creates the most complementarity between the 3′ end and the mTR sequence (Table 3). To examine whether this stimulation of telomere elongation acts through ATM, epistasis was examined by treating cells with both Olaparib and KU55933.
To detect phospho-proteins, 1× lysis buffer made of final concentration of 1×RIPA™ (Cell Signaling, #98016S), 1× protease inhibitor cocktail, 1× PhosSTOP™ (Roche, 4906845001) was added directly to cells on the dish after washing with PBS. Protein concentration was measured with a BCA protein assay kit (Thermo, #23227). Typically 10 μg of protein from each sample was applied to SDS-PAGE gels (Biorad, #456-1084) and transferred to nitrocellulose membranes in transfer buffer. After blocking with the Odyssey™ blocking buffer (LI-COR, #927-40000), membranes were incubated at 4° C. overnight or 1 hr at RT with the following primary antibodies: anti-phospho-Kap1 (Bethyl Lab, #A300-767A); anti-phospho-CHK1 (Cell Signaling, #2348S); anti-phospho-ATM (Millipore, #05-740); anti-HA (Santa Cruz, #sc-7392); anti-Actin (Santa Cruz, #sc-1616); anti-PAR (Trevigen, #4335-MC-100). […] Band intensities were quantified using the Odyssey™ software (LI-COR) and normalized to Actin levels. […]

Structure (SMILES) | bulk telomere length ([1]; SL13 cells grown in 10 μM KU55933, different population doublings) | Kap1-S824 phosphorylation ([2]; cells pretreated, then exposed to camptothecin (CPT)) | telomere length by Southern blot ([1]; SL13 cells grown in presence of Olaparib for 55 population doublings) | phosphorylation of ATM-S1981 ([2]; Olaparib-treated cells) | Kap1 phosphorylation in response to PARP1 inhibition ([2]; compared to DMSO-treated control cells)
O=c1cc(-c2cccc3c2Sc2ccccc2S3)oc(N2CCOCC2)c1 [KU55933] | telomere shortening also occurred, although at a somewhat slower rate | blocked Kap1 phosphorylation |  |  | 
O=C(c1cc(Cc2n[nH]c(=O)c3ccccc23)ccc1F)N1CCN(C(=O)C2CC2)CC1 [Olaparib] |  |  | Telomere length gradually increased; also recorded: gradually increased after 25 PDs | increased phosphorylation of ATM-S1981 | increased ATM phosphorylation of Kap1; also recorded: increased level of Kap1 phosphorylation
